Three compounds from US11279733B2, “Peptide antibiotics” (priority 2017, dated 2022) can be followed below.

The subject of one data set is A. baumannii ATCC 19606. The settings on record: ATCC 19606. In outline: (§1)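 Mid-log cultures grown in Mueller Hinton broth at 37° C were tested by 2-fold broth microdilution at 5×10^5 CFU/mL final. Compounds were dissolved in water and tested over a final range of 32 to 0.015 μg/mL.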
A further data set relates to A. baumannii GN_093 PmxR. The settings on record: GN 093 PmxR. In short, it runs like this: as §1
Another data set relates to E. coli ATCC 25922. Conditions: ATCC 25922. In outline:
as §1

In a further data set the test system is K. pneumoniae ATCC 13883. Conditions: ATCC 13883. In short, it runs like this:
as §1

In data set [1] the test system is K. pneumoniae ATCC 700603, MDR. Conditions: ATCC 700603. In short, it runs like this: as §1
Data set [2] relates to K. pneumoniae ATCC BAA-2146, NDM-1 pos. The settings on record: ATCC BAA-2146. In outline:
as §1

Data set [3] has as its system K. pneumoniae GN_102 PmxR. Conditions: GN 102 PmxR. In outline:
as §1

Data set [4] has as its system K. pneumoniae GN_106, PmxR. Conditions: GN 106, PmxR. In outline:
as §1

In another data set the test system is P. aeruginosa ATCC 27853. Conditions: ATCC 27853. In short, it runs like this: as §1
Data set [5] concerns P. aeruginosa GN_043, PmxR. The settings on record: P. aeruginosa GN_043, PmxR. In outline: as §1
For data set [6], the system named is P. aeruginosa GN_105, PmxR. Conditions: GN 105, PmxR. In short, it runs like this:
as §1

The test system of data set [7] is S. aureus ATCC 25923, MSSA. Conditions: ATCC 25923. In short, it runs like this:
as §1

The nature of a further data set: in vitro. The settings on record: human. In outline:
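HK2 cells were seeded at 2000 per well in DMEM/F12 with 10% FBS and left to attach for 24 h at 37 °C, 5% CO2. They were then exposed for 24 h to 3-fold peptide dilutions starting from 600 μM solutions in quadruplicate. LDH release was read at 450 nm, and CC50 was fitted from dose-response curves.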

Values after ≈ are worked out from the molar mass of the structure shown. Positions of bridges follow the written chain, without caps; N, C: chain ends. Non-standard residues stand in square brackets, D forms with d. Residues, ends and D or L forms follow the SMILES beside them. *: point of attachment. Decanoyl(3R-OH) = CCCCCCC[C@@H](O)CC(=O)*; dDab = NCC[C@@H](N)C(=O)O; X8 = CC(C)CCCC(C)CC(=O)*; Dab = NCC[C@H](N)C(=O)O

Take `CC(C)CCCC(C)CC(=O)N[C@H](CCN)C(=O)N[C@H]1CCNC(=O)[C@H](CC(C)C)NC(=O)[C@H](CCN)NC(=O)[C@H](CCN)NC(=O)[C@H](Cc2ccccc2)NC(=O)[C@@H](CC(C)C)NC(=O)[C@H](CCN)NC1=O` (stereo partly drawn) [compound 6515, 3,7-dimethyloctanoic acid-D-Dab-cyc[L-Dab-L-Dab-D-Leu-L-Phe-L-Dab-L-Dab-L-Leu]] (X8-[dDab][Dab][Dab][dL]F[Dab][Dab]L; lactam 2-C): the “MIC A. baumannii ATCC 19606” value against A. baumannii ATCC 19606 was greater than 32 µg/mL. In the data set on A. baumannii GN_093 PmxR, the “MIC A. baumannii GN_093 PmxR” value was found to be 16 µg/mL (≈ 15.6 µM). Also, the “MIC E. coli ATCC 25922” value in the data set on E. coli ATCC 25922 worked out at 2 µg/mL (≈ 1.94 µM). Besides, the “MIC K. pneumoniae ATCC 13883” value against K. pneumoniae ATCC 13883 came out at 8 µg/mL (≈ 7.78 µM). In data set [1], the “MIC K. pneumoniae ATCC 700603, MDR” value was 4 µg/mL (≈ 3.89 µM). In addition, in [2], the “MIC K. pneumoniae ATCC BAA-2146, NDM-1 pos” value worked out at 8 µg/mL (≈ 7.78 µM). In addition, in [3], the “MIC K. pneumoniae GN_102 PmxR” value was 16 µg/mL (≈ 15.6 µM). Also, the “MIC K. pneumoniae GN_106, PmxR” value in data set [4] stood at 32 µg/mL (≈ 31.1 µM). The “MIC P. aeruginosa ATCC 27853” value with P. aeruginosa ATCC 27853 is 2 µg/mL (≈ 1.94 µM). Besides, in data set [5], the “MIC P. aeruginosa GN_043, PmxR” value came to 2 µg/mL (≈ 1.94 µM). In addition, the “MIC P. aeruginosa GN_105, PmxR” value in data set [6] was 2 µg/mL (≈ 1.94 µM). Further, in data set [7], the “MIC S. aureus ATCC 25923, MSSA” value was 32 µg/mL (≈ 31.1 µM). In “in vitro”, this compound yielded a CC50 at 24 h of 80 µM.

In the case of `CCCCCCC[C@@H](O)CC(=O)N[C@H](CCN)C(=O)N[C@H]1CCNC(=O)[C@H]([C@@H](C)O)NC(=O)[C@H](CCN)NC(=O)[C@H](CCNC(=O)[C@@H](N)CCCNC(=N)N)NC(=O)[C@H](CC(C)C)NC(=O)[C@@H](Cc2ccccc2)NC(=O)[C@H](CCN)NC1=O` [compound 6656, 3(R)OH-nC9CO-D-Dab-cyc[L-Dab-L-Dab-D-Phe-L-Leu-L-Dab(L-Arg)-L-Dab-L-Thr]] ({Decanoyl(3R-OH)}-[dDab][Dab][Dab][dF]L[Dab](Arg)[Dab]T; lactam 2-C), in the data set with A. baumannii ATCC 19606, the “MIC A. baumannii ATCC 19606” value worked out at 16 µg/mL (≈ 13.5 µM). In the data set on A. baumannii GN_093 PmxR, the “MIC A. baumannii GN_093 PmxR” value was greater than 32 µg/mL. Further, the “MIC E. coli ATCC 25922” value against E. coli ATCC 25922 is 2 µg/mL (≈ 1.68 µM). The “MIC K. pneumoniae ATCC 13883” value against K. pneumoniae ATCC 13883 was greater than 32 µg/mL. Further, the “MIC K. pneumoniae ATCC 700603, MDR” value in data set [1] amounted to 4 µg/mL (≈ 3.37 µM). Also, in [2], the “MIC K. pneumoniae ATCC BAA-2146, NDM-1 pos” value was greater than 32 µg/mL. In addition, in data set [3], the “MIC K. pneumoniae GN_102 PmxR” value is greater than 32 µg/mL. The “MIC K. pneumoniae GN_106, PmxR” value in data set [4] is greater than 32 µg/mL. Also, the “MIC P. aeruginosa ATCC 27853” value with P. aeruginosa ATCC 27853 was found to be 2 µg/mL (≈ 1.68 µM). Besides, the “MIC P. aeruginosa GN_043, PmxR” value in [5] is 8 µg/mL (≈ 6.73 µM). In addition, the “MIC P. aeruginosa GN_105, PmxR” value in data set [6] was 16 µg/mL (≈ 13.5 µM). For the same compound, in data set [7], the “MIC S. aureus ATCC 25923, MSSA” value was greater than 32 µg/mL. This compound also had a CC50 at 24 h in the data set “in vitro” greater than 300 µM.

In the case of `CCCCCCC[C@@H](O)CC(=O)N[C@H](CCN)C(=O)N[C@H]1CCNC(=O)[C@H]([C@@H](C)O)NC(=O)[C@H](CCN)NC(=O)[C@H](CCN)NC(=O)[C@H](CC(C)C)NC(=O)[C@@H](Cc2ccccc2)NC(=O)[C@H](CCNC(=O)[C@@H](N)CCCNC(=N)N)NC1=O` [compound 6657, 3(R)OH-nC9CO-D-Dab-cyc[L-Dab-L-Dab(L-Arg)-D-Phe-L-Leu-L-Dab-L-Dab-L-Thr]] ({Decanoyl(3R-OH)}-[dDab][Dab][Dab](Arg)[dF]L[Dab][Dab]T; lactam 2-C), the “MIC A. baumannii ATCC 19606” value against A. baumannii ATCC 19606 was greater than 32 µg/mL. In the data set with A. baumannii GN_093 PmxR, the “MIC A. baumannii GN_093 PmxR” value is greater than 32 µg/mL. In addition, the “MIC E. coli ATCC 25922” value with E. coli ATCC 25922 is greater than 32 µg/mL. In addition, in the data set with K. pneumoniae ATCC 13883, the “MIC K. pneumoniae ATCC 13883” value was greater than 32 µg/mL. Further, the “MIC K. pneumoniae ATCC 700603, MDR” value in data set [1] was greater than 32 µg/mL. In data set [2], the “MIC K. pneumoniae ATCC BAA-2146, NDM-1 pos” value is greater than 32 µg/mL. Moreover, the “MIC K. pneumoniae GN_102 PmxR” value in data set [3] was greater than 32 µg/mL. Moreover, the “MIC K. pneumoniae GN_106, PmxR” value in data set [4] is greater than 32 µg/mL. Moreover, the “MIC P. aeruginosa ATCC 27853” value in the data set on P. aeruginosa ATCC 27853 came out at 16 µg/mL (≈ 13.5 µM). Further, the “MIC P. aeruginosa GN_043, PmxR” value in [5] was greater than 32 µg/mL. Besides, the “MIC P. aeruginosa GN_105, PmxR” value in data set [6] was greater than 32 µg/mL. Also, the “MIC S. aureus ATCC 25923, MSSA” value in [7] is greater than 32 µg/mL. The compound also returned a CC50 at 24 h in “in vitro” greater than 300 µM.
